ChEMBL document CHEMBL4177652, “Synthesis of 14-deoxy-11,12-didehydroandrographolide analogues as potential cytotoxic agents for cholangiocarcinoma” (Bioorg Med Chem Lett, 2017)

Columns and labels:
[1] = Growth inhibition of human KKU-M213 cells after 72 hrs by SRB assay; format: functional; conditions: KKU-M213, 72 h, read-out: ED50 (the source's name)
A549 = assay: Growth inhibition of human A549 cells after 72 hrs by SRB assay; format: functional; conditions: A549, 72 h, read-out: ED50 (the source's name)
HT-29 = assay: Growth inhibition of human HT-29 cells after 72 hrs by SRB assay; format: functional; conditions: HT-29, 72 h, read-out: ED50 (the source's name)
MCF7 = assay: Growth inhibition of human MCF7 cells after 72 hrs by SRB assay; format: functional; conditions: MCF7, 72 h, read-out: ED50 (the source's name)
HuCC-A1 = assay: Growth inhibition of human HuCCa1 cells after 72 hrs by SRB assay; format: functional; conditions: HuCC-A1, 72 h, read-out: ED50 (the source's name)
KB = assay: Growth inhibition of human KB cells after 72 hrs by SRB assay; format: functional; conditions: read-out: ED50 (the source's name)
[2] = Growth inhibition of human HEK293 cells after 72 hrs by SRB assay; format: cell-based; conditions: read-out: ED50
[3] = Growth inhibition of human KKU100 cells after 72 hrs by SRB assay; format: functional; conditions: KKU100, 72 h, read-out: ED50 (the source's name)
P388 = assay: Growth inhibition of mouse P388 cells after 72 hrs by SRB assay; format: functional; conditions: P388, 72 h, read-out: ED50 (the source's name)
[4] = Growth inhibition of rat ASK cells after 72 hrs by SRB assay; format: functional; conditions: read-out: ED50 (the source's name)

Row | SMILES | EC50 [1] [µM] | EC50 (A549) [µM] | EC50 (HT-29) [µM] | EC50 (MCF7) [µM] | EC50 (HuCC-A1) [µM] | EC50 (KB) [µM] | GI50 at 72 h [2] [µM] | EC50 [3] [µM] | EC50 (P388) [µM] | EC50 [4] [µM]
1 | CC(=O)O[C@@H]1CC[C@]2(C)[C@H](CC[C@@]3(CO3)[C@H]2/C=C/C2=CCOC2=O)[C@]1(C)CO[Si](c1ccccc1)(c1ccccc1)C(C)(C)C | 5.13 | 8.31 | 5.22 | 6.38 | 8.08 | 5.19 | 6.01 | 4.5 | 5.25 | 8.96
2 | CC(C)(C)[Si](C)(C)OC[C@@]1(C)[C@H]2CC[C@@]3(CO3)[C@@H](/C=C/C3=CCOC3=O)[C@]2(C)CC[C@H]1O | 8.57 | 9.36 | 7.24 | 8.18 | > 50 | 19.2 | 6.15 | 9.25 | 15.1 | 19
3 | C=C1CC[C@@H]2[C@](C)(CO[Si](c3ccccc3)(c3ccccc3)C(C)(C)C)[C@H](O)CC[C@@]2(C)[C@@H]1/C=C/C1=CCOC1=O | 5.07 | 6.49 | 6.48 | 4.44 | 5.53 | 4.45 | 4.4 | 14.7 | 5.51 | 7.72
4 | C=C1CC[C@@H]2[C@](C)(CO[Si](C)(C)C(C)(C)C)[C@H](O)CC[C@@]2(C)[C@@H]1/C=C/C1=CCOC1=O | 27.4 | 17.2 | 8.48 | 7.61 | 18.2 | 5.12 | 6.61 | 3.09 | 8.24 | 9.61
5 | C=C1CC[C@@H]2[C@](C)(CO[Si](C(C)C)(C(C)C)C(C)C)[C@H](OC(C)=O)CC[C@@]2(C)[C@@H]1/C=C/C1=CCOC1=O | 12.6 | 22 | 17.9 | 7.07 | 10.2 | 7.17 | 8.28 | 4.1 | 12.1 | 29.4
6 | C=C1CC[C@@H]2[C@](C)(COC(c3ccccc3)(c3ccccc3)c3ccccc3)[C@H](OC(C)=O)CC[C@@]2(C)[C@@H]1/C=C/C1=CCOC1=O | 9.98 | 12 | 21.9 | 9.12 | 38.6 | 6.36 | 7.02 | > 50 | 12.9 | 39.9
7 | CC(=O)O[C@@H]1CC[C@]2(C)[C@H](CC[C@@]3(CO3)[C@H]2/C=C/C2=CCOC2=O)[C@]1(C)COC(c1ccccc1)(c1ccccc1)c1ccccc1 | 10.2 | 8.16 | 6.74 | 6.84 | 9.74 | 5.12 | 5.99 | 14.1 | 5.28 | 8.29
8 | CC(C)[Si](OC[C@@]1(C)[C@H]2CC[C@@]3(CO3)[C@@H](/C=C/C3=CCOC3=O)[C@]2(C)CC[C@H]1O)(C(C)C)C(C)C | 3.37 | 6.58 | 2.28 | 4.98 | 7.35 | 4.59 | 4.04 | 2.93 | 3.86 | 6.6
9 | CC(=O)O[C@@H]1CC[C@]2(C)[C@H](CC[C@@]3(CO3)[C@H]2/C=C/C2=CCOC2=O)[C@]1(C)CO[Si](C(C)C)(C(C)C)C(C)C | 7.22 | 8.65 | 7.4 | 7.84 | 8.92 | 8.48 | 7.39 | 17.5 | 7.84 | 15.7
10 | C=C1CC[C@@H]2[C@](C)(CO[Si](c3ccccc3)(c3ccccc3)C(C)(C)C)[C@H](OC(C)=O)CC[C@@]2(C)[C@@H]1/C=C/C1=CCOC1=O | 16 | 9.47 | 32.5 | 7.77 | 24.3 | 5.15 | 5.57 | > 50 | 14.5 | > 50
11 | CC(=O)OC[C@@]1(C)[C@H]2CC[C@@]3(CO3)[C@@H](/C=C/C3=CCOC3=O)[C@]2(C)CC[C@H]1OC(C)=O | > 50 | > 50 | > 50 | > 50 | > 50 | > 50 | > 50 | > 50 | > 50 | > 50
12 | Cc1c2ccncc2c(C)c2c1[nH]c1ccccc12 [ELLIPTECINE] | 4.75 | 2.37 | 2.68 | 1.66 | 3.46 | 2.34 | 2.27 | 4.16 | 2.12 | 2.17
